Tests used:
[1] = target: T1, human 14273 receptor (Homo sapiens, UniProt Q5NUL3); experiment: Test Example 1: regulating effect for 14273 receptor function (agonist effect), change in intracellular calcium level by FLIPR; assay type: cell-based; settings: CHO cell line (No. 104) expressing human 14273 receptor, change of fluorescent intensity after 35 seconds
T1 construct: expressed in transfected cells
T1 sequence (Q5NUL3 1-361): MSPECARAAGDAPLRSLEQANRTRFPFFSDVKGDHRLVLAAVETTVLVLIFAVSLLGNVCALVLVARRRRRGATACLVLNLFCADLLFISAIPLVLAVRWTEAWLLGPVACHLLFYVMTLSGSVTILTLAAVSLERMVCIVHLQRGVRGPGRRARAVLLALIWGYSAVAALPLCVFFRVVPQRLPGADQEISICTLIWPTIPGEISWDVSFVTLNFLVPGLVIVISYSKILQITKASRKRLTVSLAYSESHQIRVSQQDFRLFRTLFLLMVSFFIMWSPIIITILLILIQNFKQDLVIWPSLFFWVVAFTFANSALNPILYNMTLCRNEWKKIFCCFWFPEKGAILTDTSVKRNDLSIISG
Protocol: CHO cell lines (No. 104) in which a human 14273 receptor has expressed was diluted to contain 3×10^4/100 μl cells, and dispensed in Black walled 96-well plate (Costar) at a density of 100 μl/well, followed by culturing overnight in a CO2 incubator. A change in intracellular calcium level was measured using FLIPR (Molecular Device). The method is described as below. 50 μg of Fluo-3AM (DOJIN) was dissolved in 21 μl of DMSO (DOJIN) and an equal volume of 20% pluronic acid (Molecular Probes) was added thereto, followed by mixing them. The mixture was added to 10.6 ml of the assay buffer [which is prepared by adding 10 ml of a solution, which is prepared by adding 20 ml of 1 M HEPES (pH 7.4, DOJIN) to 1 L of HBSS (Invitrogen), dissolving 710 mg of probenecid (Sigma) in 5 ml of 1 N NaOH, and further adding 5 ml of the above-mentioned HBSS/HEPES solution and mixing it.] supplemented with 105 μl of fetal bovine serum to prepare a fluorescent dye solution. The medium of the cell plate was removed, the fluorescent dye solution was dispensed in 100 μl each per well. The culturing was performed in a CO2 incubator for 1 hour to incorporate the fluorescent dye into the cells. The cells after culturing were washed with the assay buffer. The compounds to be added to the cells were diluted to each concentration with a buffer solution to which CHAPS (DOJIN) was added in 0.015%, and dispensed in a plate for the test sample. Following the pretreatment above, a change in intracellular calcium level after addition of the compound was determined with FLIPR to investigate the agonist effect. An EC50 value was calculated from dose-reaction curve using the change of fluorescent intensity after 35 seconds from the reaction initiation.

[2] = test system: AtT-20 cells; experiment: Test Example 3: suppression of CRF-induced ACTH secretion in AtT-20 cells; assay type: cell-based, mouse; settings: 10 μM of compound; 100 nM CRF; 90 minutes; adherent AtT-20 substrain
Protocol: Influence on ACTH secretion from mouse pituitary corticotrophic cell line AtT-20 cells was analyzed. […] This adherent AtT-20 cell substrain was cultured on a poly-D-lysine-coated 48-well plate at a density of 1×10^5 cells/well for 2 nights, which was provided for assay. […] After washing the cells once with this buffer, a predetermined concentration of the compound was added thereto, followed by addition of a buffer containing 100 nM of a corticotropin-releasing factor (CRF), and followed by culturing at 37° C. for 90 minutes in a CO2 incubator. Then, the plate was gently stirred, then centrifuged at 1200 rpm for 5 minutes at room temperature and the buffer was recovered from the intermediate layer. The ACTH concentration was determined using an ACTH assay kit (Mitsubishi Medical, ACTH IRMA “Yuka”).

## O=C(O)CCc1ccc(OCc2cccc(Oc3ccc(F)cc3)c2)c(F)c1 [Example 161, 3-(3-fluoro-4-{[3-(4-fluorophenoxy)benzyl]oxy}phenyl)propanoic acid]
[1]
  EC50: ≤ 10 µM
[2]
  lowering of the amount of ACTH secretion increased by CRF stimulation: 49%
